# Like-named read-outs stand apart in the source and are kept apart here. Starred links: 1 amine or outer side, 2 acyl side, 3 side chain; linkers in the order of their positions; H or OH if unused. Positions of bridges follow the written chain, without caps; N, C: chain ends. Non-standard residues stand in square brackets, D forms with d. Residues, ends and D or L forms follow the SMILES beside them. ξ: configuration not given here. Phe(2,4-F2) = N[C@@H](Cc1ccc(F)cc1F)C(=O)O; X1 = C=CCOc1ccccc1C[C@H](N[*:1])C(=O)[*:2]; Phe(3-Me) = Cc1cccc(C[C@H](N)C(=O)O)c1; γGlu = O=C(O)[C@H](CCC(=O)[*:2])N[*:1]; 2Nal = N[C@@H](Cc1ccc2ccccc2c1)C(=O)O; βAsp = O=C(O)[C@H](CC(=O)[*:2])N[*:1]; 4Pal = N[C@@H](Cc1ccncc1)C(=O)O; Ahp(2) = CCCCC[C@H](N)C(=O)O; NMeNle = CCCC[C@H](NC)C(=O)O; Tle = CC(C)(C)[C@H](N)C(=O)O; NMeV = CN[C@H](C(=O)O)C(C)C; NHexGly = CCCCCCNCC(=O)O; Nle = CCCC[C@H](N)C(=O)O; Orn = NCCC[C@H](N)C(=O)O; Aun = NCCCCCCCCCCC(=O)O; AEEA = NCCOCCOCC(=O)O; ξS = NC(CO)C(=O)O
# Target: T1, mouse VISTA (mVISTA) (Mus musculus, UniProt Q9D659)
# T1 construct: expressed in transfected cells; host or cells: Human embryonic kidney 293T cells
# T1 sequence (Q9D659 33-308): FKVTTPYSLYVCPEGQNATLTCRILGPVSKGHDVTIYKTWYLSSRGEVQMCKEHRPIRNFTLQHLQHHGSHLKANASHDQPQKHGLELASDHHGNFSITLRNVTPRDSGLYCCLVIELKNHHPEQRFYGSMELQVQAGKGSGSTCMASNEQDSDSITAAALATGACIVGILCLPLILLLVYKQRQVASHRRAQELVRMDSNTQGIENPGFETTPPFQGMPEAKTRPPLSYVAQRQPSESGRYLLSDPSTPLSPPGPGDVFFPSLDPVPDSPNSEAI
# Assay: Cell-Based Binding High-Content Assay For mVISTA (HC CBA mVISTA)
# In short: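 mVISTA-293T, 4,000 cells/well; cpd ± washout step; biotin-peptide 2 nM final, 30 min RT; SA-Alexa 647 30 min; formaldehyde/Hoechst fix; HCS imaging; 4PL IC50.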
# [1] = cell-based binding high-content assay, mVISTA, the 16th table, read-out: HC CBA mVISTA IC50
# [2] = cell-based binding high-content assay, mVISTA, read-out: HC CBA miPr ISTA IC50
IC50 (read-out: HC CBA mVISTA IC50),Structure (SMILES),other results
0.0243 µM,CCCCCCN1CC(=O)N[C@@H](Cc2ccc(O)cc2)C(=O)N[C@@H](CCCC)C(=O)NCC(=O)N[C@@H](CCCNC(=N)N)C(=O)N[C@@H](CC(C)C)C(=O)N[C@@H](CCCCC)C(=O)N2CCC[C@H]2C(=O)N[C@@H](C(C)C)C(=O)N[C@@H](CC(=O)O)C(=O)N[C@H](C(=O)NCCOCCOCC(=O)N[C@@H](CCC(=O)NCCOCCOCC(=O)NCCCCCCCCCCC(=O)O)C(=O)O)CSCC(=O)N[C@@H](Cc2cccc(C)c2)C(=O)N[C@@H](Cc2ccc(O)cc2)C(=O)N[C@@H](CC(=O)O)C1=O [compound 2216] ({CH2CO}-[Phe(3-Me)]YD[NHexGly]Y[Nle]GRL[Ahp(2)]PVDC[AEEA][γGlu][AEEA][Aun]-OH; thioether N-14),
,CCCCCCN1CC(=O)N[C@@H](Cc2ccc(O)cc2)C(=O)N[C@@H](CC(C)C)C(=O)NCC(=O)N[C@@H](CCCNC(=N)N)C(=O)N[C@@H](Cc2ccc(O)cc2)C(=O)N[C@@H](CCCCC)C(=O)N2CCC[C@H]2C(=O)N[C@@H](C(C)C)C(=O)N[C@@H](CC(=O)O)C(=O)N[C@H](C(=O)NCC(N)=O)CSCC(=O)N[C@@H](Cc2ccc3ccccc3c2)C(=O)N[C@@H](Cc2ccc(O)cc2)C(=O)N[C@@H](CC(=O)O)C1=O [Ex 1298] ({CH2CO}-[2Nal]YD[NHexGly]YLGRY[Ahp(2)]PVDCG-NH2; thioether N-14),IC50 [1]: 0.0361 µM
0.036 µM,CCCCCCN1CC(=O)N[C@@H](Cc2ccc(O)cc2)C(=O)N[C@@H](CCCC)C(=O)N[C@@H](CC(=O)O)C(=O)N[C@@H](CCCN)C(=O)N(C)[C@@H](CCCC)C(=O)N[C@@H](CCCCC)C(=O)N2CCC[C@H]2C(=O)N[C@@H](C(C)(C)C)C(=O)N[C@@H](CC(=O)O)C(=O)N[C@H](C(=O)N[C@@H](CC(N)=O)C(=O)O)CSCC(=O)N[C@@H](Cc2ccccc2)C(=O)N[C@@H](Cc2c[nH]c3ccccc23)C(=O)N[C@@H](CC(=O)O)C1=O [Example 1397] ({CH2CO}-FWD[NHexGly]Y[Nle]D[Orn][NMeNle][Ahp(2)]P[Tle]DCN-OH; thioether N-14),
0.0207 µM,CCCCCCN1CC(=O)N[C@@H](Cc2ccc(O)cc2)C(=O)N[C@@H](CCCC)C(=O)N[C@@H](CC(N)=O)C(=O)N[C@@H](CCCNC(=N)N)C(=O)N(C)[C@@H](CCCC)C(=O)N[C@@H](CCCCC)C(=O)N2CCC[C@H]2C(=O)N[C@@H](C(C)(C)C)C(=O)N[C@@H](CO)C(=O)N[C@H](C(=O)NCCOCCOCC(=O)N[C@@H](CCC(=O)NCCOCCOCC(=O)NCCCCCCCCCCC(=O)O)C(=O)O)CSCC(=O)N[C@@H](Cc2ccncc2)C(=O)N[C@@H](Cc2c[nH]c3ccccc23)C(=O)N[C@@H](CC(=O)O)C1=O [compound 2253] ({CH2CO}-[4Pal]WD[NHexGly]Y[Nle]NR[NMeNle][Ahp(2)]P[Tle]SC[AEEA][γGlu][AEEA][Aun]-OH; thioether N-14),
0.0148 µM,CCCCCCN1CC(=O)N[C@@H](Cc2ccc(O)cc2)C(=O)N[C@@H](CCCC)C(=O)N[C@@H](CC(N)=O)C(=O)N[C@@H](CCCN)C(=O)N(C)[C@@H](CCCC)C(=O)N[C@@H](CCCCC)C(=O)N2CCC[C@H]2C(=O)N[C@@H](C(C)(C)C)C(=O)N[C@@H](CC(=O)O)C(=O)N[C@H](C(=O)N[C@@H](CC(=O)O)C(N)=O)CSCC(=O)N[C@@H](Cc2ccccc2)C(=O)N[C@@H](Cc2c[nH]c3ccccc23)C(=O)N[C@@H](CC(=O)O)C1=O [Example 1373] ({CH2CO}-FWD[NHexGly]Y[Nle]N[Orn][NMeNle][Ahp(2)]P[Tle]DCD-NH2; thioether N-14),
,CCCCCCN1CC(=O)N[C@@H](Cc2ccc(O)cc2)C(=O)N[C@@H](CCCCC)C(=O)NCC(=O)N[C@@H](CCCNC(=N)N)C(=O)N[C@@H](CC(C)C)C(=O)N[C@@H](CCCCC)C(=O)N2CCC[C@H]2C(=O)N[C@@H](C(C)C)C(=O)N[C@@H](CO)C(=O)N[C@H](C(=O)NCC(N)=O)CSCC(=O)N[C@@H](Cc2ccccc2)C(=O)N[C@@H](Cc2ccc(O)cc2)C(=O)N[C@@H](CC(=O)O)C1=O [Example 1039] ({CH2CO}-FYD[NHexGly]Y[Ahp(2)]GRL[Ahp(2)]PVSCG-NH2; thioether N-14),"IC50 (293T cells expressing mouse VISTA, competition with biotinylated peptide (2 nM), read-out: HC CBA mVISTA IC50): 0.0022 µM"
,CCCCCCN1CC(=O)N[C@@H](Cc2ccc(O)cc2)C(=O)N[C@@H](CC(C)C)C(=O)N[C@@H](CC(N)=O)C(=O)N[C@@H](CCCNC(=N)N)C(=O)N[C@@H](CC(C)C)C(=O)N[C@@H](CCCCC)C(=O)N2CCC[C@H]2C(=O)N[C@@H](C(C)C)C(=O)N[C@@H](C(C)C)C(=O)N[C@H](C(=O)NCC(=O)NCCOCCOCC(=O)N[C@@H](CC(=O)O)C(=O)NCCOCCOCC(=O)NCCCCCCCCCCC(=O)O)CSCC(=O)N[C@@H](Cc2ccccc2)C(=O)N[C@@H](Cc2ccc(O)cc2)C(=O)N[C@@H](CC(=O)O)C1=O [compound 2012] ({CH2CO}-FYD[NHexGly]YLNRL[Ahp(2)]PVVCG[AEEA]D[AEEA][Aun]-OH; thioether N-14),IC50 [2]: 0.0513 µM
0.038 µM,CCCCCCN1CC(=O)N[C@@H](Cc2ccc(O)cc2)C(=O)N[C@@H](CCCC)C(=O)N[C@@H](CC(N)=O)C(=O)N[C@@H](CCCNC(=N)N)C(=O)N[C@@H](CC(C)C)C(=O)N[C@@H](CCCCC)C(=O)N2CCC[C@H]2C(=O)N[C@@H](C(C)(C)C)C(=O)N[C@@H](CO)C(=O)N[C@H](C(=O)NCCOCCOCC(=O)N[C@@H](CCC(=O)NCCOCCOCC(=O)NCCCCCCCCCCC(=O)O)C(=O)O)CSCC(=O)N[C@@H](Cc2ccccc2)C(=O)N[C@@H](Cc2ccc(O)cc2)C(=O)N[C@@H](CC(=O)O)C1=O [compound 2238] ({CH2CO}-FYD[NHexGly]Y[Nle]NRL[Ahp(2)]P[Tle]SC[AEEA][γGlu][AEEA][Aun]-OH; thioether N-14),
0.0325 µM,CCCCCCN1CC(=O)N[C@@H](Cc2ccc(O)cc2)C(=O)N[C@@H](CCCCC)C(=O)N[C@@H](CC(N)=O)C(=O)N[C@@H](CCCNC(=N)N)C(=O)N(C)[C@@H](CCCC)C(=O)N[C@@H](CCCCC)C(=O)N2CCC[C@H]2C(=O)N[C@@H](C(C)(C)C)C(=O)N[C@@H](CO)C(=O)N[C@H](C(=O)N[C@@H](CCC(=O)NCCCCCCCCCCC(=O)O)C(=O)O)CSCC(=O)N[C@@H](Cc2ccccc2)C(=O)N[C@@H](Cc2ccc(O)cc2)C(=O)N[C@@H](CC(=O)O)C1=O [Example 2142] ({CH2CO}-FYD[NHexGly]Y[Ahp(2)]NR[NMeNle][Ahp(2)]P[Tle]SC[γGlu][Aun]-OH; thioether N-14),
,CCCCCCN1CC(=O)N[C@@H](Cc2ccc(O)cc2)C(=O)N[C@@H](CC(C)C)C(=O)N[C@@H](CC(N)=O)C(=O)N[C@@H](CCCNC(=N)N)C(=O)N(C)[C@@H](C(C)C)C(=O)N[C@@H](CCCCC)C(=O)N2CCC[C@H]2C(=O)N[C@@H](C(C)(C)C)C(=O)N[C@@H](CC(=O)O)C(=O)N[C@H](C(=O)N[C@@H](CC(=O)NCCOCCOCC(=O)N[C@@H](CC(=O)O)C(=O)NCCOCCOCC(=O)NCCCCCCCCCCC(=O)O)C(=O)O)CSCC(=O)N[C@@H](Cc2ccccc2)C(=O)N[C@@H](Cc2c[nH]c3ccccc23)C(=O)N[C@@H](CC(=O)O)C1=O [compound 2040] ({CH2CO}-FWD[NHexGly]YLNR[NMeV][Ahp(2)]P[Tle]DC[βAsp][AEEA]D[AEEA][Aun]-OH; thioether N-14),IC50 [2]: 0.0407 µM
0.0339 µM,"CCCCCCN1CC(=O)N[C@@H](Cc2ccc(O)cc2)C(=O)N[C@@H](CCCCC)C(=O)N[C@@H](CC(N)=O)C(=O)N[C@@H](CCCNC(=N)N)C(=O)N(C)[C@@H](CCCC)C(=O)N[C@@H](CCCCC)C(=O)N2CCC[C@H]2C(=O)N[C@@H](C(C)C)C(=O)N[C@@H](C(C)C)C(=O)N[C@H](C(=O)NC(CO)C(=O)O)CSCC(=O)N[C@@H](Cc2ccc(F)cc2F)C(=O)N[C@@H](Cc2ccc(F)cc2F)C(=O)N[C@@H](CC(=O)O)C1=O (some centres unmarked) [compound 1219] ({CH2CO}-[Phe(2,4-F2)][Phe(2,4-F2)]D[NHexGly]Y[Ahp(2)]NR[NMeNle][Ahp(2)]PVVC[ξS]-OH; thioether N-14)",
,CCCCCCN1CC(=O)N[C@@H](Cc2ccc(O)cc2)C(=O)N[C@@H](CCCCC)C(=O)NCC(=O)N[C@@H](CCCNC(=N)N)C(=O)N[C@@H](CC(C)C)C(=O)N[C@@H](CCCCC)C(=O)N2CCC[C@H]2C(=O)N[C@@H](C(C)C)C(=O)N[C@@H](CO)C(=O)N[C@H](C(=O)NCCOCCOCC(=O)N[C@@H](CC(=O)O)C(=O)NCCOCCOCC(=O)NCCCCCCCCCCC(=O)O)CSCC(=O)N[C@@H](Cc2ccccc2)C(=O)N[C@@H](Cc2ccc(O)cc2)C(=O)N[C@@H](CC(=O)O)C1=O [compound 2292] ({CH2CO}-FYD[NHexGly]Y[Ahp(2)]GRL[Ahp(2)]PVSC[AEEA]D[AEEA][Aun]-OH; thioether N-14),"IC50 (cell-based binding high-content assay, read-out: HC CBA miPrISTA IC50): 0.0182 µM"
,CCCCCCN1CC(=O)N[C@@H](Cc2ccc(O)cc2)C(=O)N[C@@H](CCCC)C(=O)N[C@@H](CC(N)=O)C(=O)N[C@@H](CCCNC(=N)N)C(=O)N[C@@H](CC(C)C)C(=O)N[C@@H](CCCCC)C(=O)N2CCC[C@H]2C(=O)N[C@@H](C(C)C)C(=O)N[C@@H](CO)C(=O)N[C@H](C(=O)NCC(=O)O)CSCC(=O)N[C@@H](Cc2ccc3ccccc3c2)C(=O)N[C@@H](Cc2ccc(O)cc2)C(=O)N[C@@H](CC(=O)O)C1=O [Ex 1272] ({CH2CO}-[2Nal]YD[NHexGly]Y[Nle]NRL[Ahp(2)]PVSCG-OH; thioether N-14),IC50 [1]: 0.0028 µM

Structure (SMILES),IC50 (read-out: HC CBA mVISTA IC50),other results
C=CCOc1ccccc1C[C@@H]1NC(=O)[C@H](Cc2ccccc2)NC(=O)CSC[C@@H](C(=O)NCC(N)=O)NC(=O)[C@H](CO)NC(=O)[C@H](C(C)(C)C)NC(=O)[C@@H]2CCCN2C(=O)[C@H](CCCCC)NC(=O)[C@H](CCCC)N(C)C(=O)[C@H](CCCNC(=N)N)NC(=O)[C@H](CC(N)=O)NC(=O)[C@H](CC(C)C)NC(=O)[C@H](Cc2ccc(O)cc2)NC(=O)CN(CCCCCC)C(=O)[C@H](CC(=O)O)NC1=O [compound 1338] ({CH2CO}-F[X1]D[NHexGly]YLNR[NMeNle][Ahp(2)]P[Tle]SCG-NH2; thioether N-14),0.0346 µM,

# — patent publication US20240218022A1, “ANTI-VISTA MACROCYCLIC PEPTIDES AND COMPOSITIONS” (BRISTOL-MYERS SQUIBB COMPANY, priority 2022, published 2024)
